The values below come from paper PMC12514577, “Activity-based probes and chemical proteomics uncover the biological impact of targeting HMG-CoA Synthase 1 in the mevalonate pathway” (The Journal of Biological Chemistry, 2025).

The target of test [1] is T1, 3-hydroxy-3-methylglutaryl-coenzyme A synthase 1 (HMGCS1) (Homo sapiens, UniProt Q01581).
T1 sequence (Q01581 1-520): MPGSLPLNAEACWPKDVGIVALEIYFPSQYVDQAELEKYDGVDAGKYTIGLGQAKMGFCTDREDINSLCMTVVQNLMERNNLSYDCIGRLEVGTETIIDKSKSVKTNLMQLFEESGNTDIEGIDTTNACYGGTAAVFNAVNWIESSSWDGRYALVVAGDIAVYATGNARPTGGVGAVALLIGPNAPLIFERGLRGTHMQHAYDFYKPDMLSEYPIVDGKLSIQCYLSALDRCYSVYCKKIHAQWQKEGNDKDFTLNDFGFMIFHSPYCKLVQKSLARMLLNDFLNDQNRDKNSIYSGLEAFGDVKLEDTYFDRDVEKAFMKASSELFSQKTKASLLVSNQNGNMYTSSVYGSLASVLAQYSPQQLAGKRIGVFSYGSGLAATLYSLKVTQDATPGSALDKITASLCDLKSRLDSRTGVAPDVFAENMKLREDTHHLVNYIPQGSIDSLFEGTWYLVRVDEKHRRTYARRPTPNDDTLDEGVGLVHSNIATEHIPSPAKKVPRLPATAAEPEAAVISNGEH
The experiment in a line: competitive affinity purification TMT mass spectrometry and immunoblot in HEK293T cells. The arrangement: endogenous HMGCS1 in HEK293T cells. The format is cell-based.

In test [2] the target is T1, 3-hydroxy-3-methylglutaryl-coenzyme A synthase 1 (HMGCS1). In words: Glu-C MS/MS of adduct on recombinant HMGCS1; dose-dependent competition with HG-FL in gel; competitive chemoproteomics in HEK293T. It is filed as binding. The arrangement: recombinant HMGCS1 (pET60b-HMGCS1-TEV-6His).

Take `CC(=C\C(=O)NCCOCCOCCNC(=O)CCCC[C@@H]1SC[C@@H]2NC(=O)N[C@@H]21)/C=C(\C)C[C@H](C)CCCC[C@H]1OC(=O)[C@@H]1CO` [HG-biotin, Hymeglusin-biotin]: the “competitive affinity purification TMT mass spectrometry and immunoblot in HEK293” value in test [1] was “An orthogonal immunoblotting assay confirmed the strong enrichment of HMGCS1 by HG-biotin in DMSO pre-treated cells”.

For the compound `CC(=C\C(=O)O)/C=C(\C)C[C@H](C)CCCC[C@H]1OC(=O)[C@@H]1CO` [HG, Hymeglusin], the “Glu-C MS/MS of adduct on recombinant HMGCS1; dose-dependent competition with HG-” value in test [2] is recorded as “Mass spectrometry analysis of recombinant HMGCS1, after incubation with HG, further confirmed the modification of C129 by HG”.
